Source: patent US20210395210A1, “INHIBITION OF BACTERIAL CHAPERONIN SYSTEMS” (THE TRUSTEES OF INDIANA UNIVERSITY, priority 2018, published 2021)
Entries after “also recorded” stand apart in the source; their conditions may differ. Like-named read-outs stand apart in the source and are kept apart here.

Tests used:
HEK 293 kidney cells = assay: Kidney cell viability assay (Alamar Blue); conditions: read-out: Human Cell Viability CC50, Kidney (HEK 293); HEK 293 kidney cells, Alamar Blue, 48 h
Protocol: (§1) HEK 293 cells were maintained in MEM medium (Corning Cellgro, 10-009 CV) supplemented with 10% FBS (Sigma, F2242). […] Cells at 80% confluence were harvested and diluted in growth medium, then 45 μL of the THLE-3 cells (1,500 cells/well) or HEK 293 cells (1,500 cells/well) were dispensed per well, and plates were sealed with “Breathe Easy” oxygen permeable membranes (Diversified Biotech) and incubated at 37° C., 5% CO2, for 24 h.

THLE-3 liver cells = assay: Liver cell viability assay (Alamar Blue); conditions: read-out: Human Cell Viability CC50, Liver (THLE-3); THLE-3 liver cells, Alamar Blue, 48 h
Protocol: as §1

[1] = tested on: S. aureus Rosenbach (ATCC 25923) in established biofilms; assay: S. aureus biofilm penetration and bactericidal activity assay; type: cell-based, Staphylococcus aureus; conditions: read-out: S. aureus Proliferation & Biofilm Assay EC50 Killing Bacteria in Biofilms
Protocol: The biofilm penetration and bactericidal activity assay was carried out with S. aureus Rosenbach (ATCC 25923) as described previously by Kwasny et al. S. aureus bacteria were streaked onto a Tryptic Soy Broth (TSB) agar plate and grown overnight at 37° C. A fresh aliquot of TSB media was inoculated with a single bacterial colony and the cultures were grown overnight at 37° C. with shaking (250 rpm). The overnight culture was then sub-cultured (1:5 dilution) into a fresh aliquot of TSB media supplemented with 0.5% glucose and grown at 37° C. for 1 h with shaking, then diluted into fresh TSB media supplemented with 0.5% glucose to achieve a final OD600 reading of 0.01. Aliquots of the diluted culture (100 μL) were dispensed to 96 well polystyrene plates without any compounds added. A second set of control plates were prepared analogously, but without any bacteria added. Plates were sealed with “Breathe Easy” oxygen permeable membranes (Diversified Biotech) and left to incubate at 37° C. without shaking (stagnant assay) until biofilm was formed. After 24 h, the planktonic cultures (or media blanks in the control plates) were removed and the plates were washed gently 3 times with 200 μL of sterile phosphate buffered saline (PBS). Then, 100 μL aliquots of fresh TSB media were dispensed to the plates along with addition of 1 μL of test compounds in DMSO. The inhibitor concentration range during the assay was 100 μM to 46 nM (3-fold dilution series). The plates were sealed with “Breathe Easy” membranes and incubated at 37° C. without shaking to allow compounds to penetrate and kill bacteria in the biofilms. After 24 h, the cultures were removed and plates were washed again gently 3 times with 200 μL of sterile PBS. The remaining bacteria in the biofilms were allowed to recover by adding 100 μL of fresh TSB media per well and incubating for 24 h at 37° C. At the end of this final incubation, bacterial growth was monitored by measuring the OD600 nm using a Molecular Devices SpectraMax Plus384 microplate reader. […] Results presented represent the averages of EC50 values obtained from at least triplicate experiments.
Next, we evaluated whether or not compounds would be bactericidal to S. aureus that were within already established biofilms. In this assay, we first grew S. aureus bacteria for 24 h in the absence of test compounds so that they could establish biofilms in the wells. After 24 h, the cultures were removed, the wells were washed gently, and fresh media was added along with test compounds or vancomycin. […] Fresh media was then added and the cultures were incubated for another 24 h to allow any viable bacteria remaining in the biofilms to emerge and grow planktonically again.

MRSA (ATCC BAA-44) = assay: MRSA resistance generation, 12-day serial passage assay; type: cell-based, Staphylococcus aureus; conditions: 12 days serial passage, EC50 per passage
Protocol: To identify potential resistance toward compounds 1 and 11, a liquid culture, 12-day serial passage assay was employed as per previously reported procedures, and using the ATCC BAA-44 MRSA strain. MRSA bacteria were streaked onto a Tryptic Soy agar plate and grown overnight at 37° C. A fresh aliquot of Tryptic Soy Broth (TSB) was inoculated with a single bacterial colony and the cultures were grown overnight at 37° C. with shaking (250 rpm). The overnight culture was then sub-cultured (1:5 dilution) into a fresh aliquot of media and grown at 37° C. for 1 h with shaking, then diluted into fresh media to achieve a final OD600 reading of 0.01. Aliquots of the diluted culture (200 μL) were dispensed to 96 well plates along with addition of 2 μL of test compounds in DMSO (1, 11, vancomycin, and a previously-reported GroEUES inhibitor, “28R”). The inhibitor concentration range during the resistance assay was 100 μM to 48.8 nM (2-fold dilution series). Plates were sealed with “Breathe Easy” oxygen permeable membranes (Diversified Biotech) and left to incubate at 37° C. without shaking (stagnant assay). OD600 readings were taken at the 24 h time point to monitor for bacterial growth. A second set of baseline control plates were prepared analogously, without any bacteria added, to correct for possible compound absorbance and/or precipitation, as well as plate and media baseline effects. […]

[2] = Staphylococcus aureus, ATCC25923, 24 h

`CC1(C)S[C@@H]2[C@H](NC(=O)[C@H](N)c3ccccc3)C(=O)N2[C@H]1C(=O)O` [Ampicillin, ampicillin, reference compound] was tested, and the CC50 (HEK 293 kidney cells) was > 100 µM and the CC50 (THLE-3 liver cells) was > 100 µM.
Work on `Cc1cc(C(C#N)c2ccc(Cl)cc2)c(Cl)cc1NC(=O)c1cc(I)cc(I)c1O` (stereo not drawn) [Closantel, closantel, reference compound] yielded a CC50 (HEK 293 kidney cells) of 75 µM.
With `O=C(Nc1ccc(Sc2nc3ccccc3s2)c(Cl)c1)c1cc(Br)cc(Br)c1O` [Compound 1, N-(4-(Benzo[d]thiazol-2-ylthio)-3-chlorophenyl)-3,5-dibromo-2-hydroxybenzamide] the EC50 [1, 2] was 2.4 µM and the “ability of MRSA to generate resistance (in words)” value (MRSA (ATCC BAA-44)) was “not able to easily generate resistance; also recorded: retained sensitivity”.
With `O=C(Nc1ccc(Sc2nc3ccccc3s2)c(Cl)c1)c1cccc(Br)c1O` [Compound 2, N-(4-(Benzo[d]thiazol-2-ylthio)-3-chlorophenyl)-3-bromo-2-hydroxybenzamide] the EC50 [1, 2] was 5.6 µM.
In the case of `O=C(Nc1ccc(Sc2nc3ccccc3s2)cc1)c1cc(Br)cc(Br)c1O` [Compound 5, N-(4-(Benzo[d]thiazol-2-ylthio)phenyl)-3,5-dibromo-2-hydroxybenzamide], the EC50 [1, 2] is reported as 2.3 µM.
For `O=C(Nc1ccc(Sc2nc3ccccc3s2)cc1)c1ccccc1O` [Compound 8, N-(4-(Benzo[d]thiazol-2-ylthio)phenyl)-2-hydroxybenzamide], the EC50 ([1]; Staphylococcus aureus, ATCC25923, established 24 h biofilm, 24 h with compound, 24 h recovery, OD600) was 2 µM.
Molecule `O=C(Nc1cccc(Cl)c1)c1cc(Br)cc(Br)c1O` [Compound 9, 3,5-Dibromo-N-(3-chlorophenyl)-2-hydroxybenzamide] has a CC50 (HEK 293 kidney cells) of 18 µM and a CC50 (THLE-3 liver cells) of 9.2 µM.
`O=C(Nc1cccc(Cl)c1)c1cc(Br)ccc1O` [Compound 11, 5-Bromo-N-(3-chlorophenyl)-2-hydroxybenzamide] was tested, and the EC50 [1, 2] was 6.9 µM and the “ability of MRSA to generate resistance (in words)” value (MRSA (ATCC BAA-44)) was “not able to easily generate resistance; also recorded: retained sensitivity”.
`O=C(Nc1ccccc1)c1cc(Br)cc(Br)c1O` [Compound 13, 3,5-Dibromo-2-hydroxy-N-phenylbenzamide] showed a CC50 (HEK 293 kidney cells) of 34 µM and a CC50 (THLE-3 liver cells) of 25 µM.
For `O=C(Nc1ccccc1)c1ccccc1O` [Compound 16, 2-Hydroxy-N-phenylbenzamide], the CC50 (HEK 293 kidney cells) was > 100 µM and the CC50 (THLE-3 liver cells) was 68 µM.
For `O=C(Nc1ccc(Oc2ccc(Cl)cc2)c(Cl)c1)c1cc(I)cc(I)c1O` [Rafoxanide, rafoxanide, reference compound], the CC50 (HEK 293 kidney cells) was > 100 µM and the CC50 (THLE-3 liver cells) was 24 µM.
For `CN[C@H](CC(C)C)C(=O)N[C@H]1C(=O)N[C@@H](CC(N)=O)C(=O)N[C@H]2C(=O)N[C@H]3C(=O)N[C@H](C(=O)N[C@H](C(=O)O)c4cc(O)cc(O)c4-c4cc3ccc4O)[C@H](O)c3ccc(c(Cl)c3)Oc3cc2cc(c3O[C@@H]2O[C@H](CO)[C@@H](O)[C@H](O)[C@H]2O[C@H]2C[C@](C)(N)[C@H](O)[C@H](C)O2)Oc2ccc(cc2Cl)[C@H]1O` [Vancomycin, vancomycin, reference compound], the CC50 (HEK 293 kidney cells) was > 100 µM, the CC50 (THLE-3 liver cells) was > 100 µM and the EC50 ([1]; established 24 h biofilm, 24 h with compound, 24 h recovery, OD600) was > 100 µM.
